Literature values, collected in patent US7417156B2, “Orally active, antimalarial, anticancer, artemisinin-derived trioxane dimers” (Johns Hopkins University, priority 2002, dated 2008).

Conditions: in vivo; cited from earlier work

## C[C@H]1[C@@H](O)O[C@@H]2O[C@@]3(C)CC[C@H]4[C@H](C)CC[C@@H]1[C@@]24OO3 [Compound 31, dihydroartemisinin]
  half-life in plasma: less than two hours
